Measurements from ChEMBL document CHEMBL1926529, “Synthesis of novel benzofurocoumarin analogues and their anti-proliferative effect on human cancer cell lines” (2012).
Activity calls are given as the source filed them. The rule behind the calls is not given here.

What was measured:
MDA-MB-231 [1] = assay: Growth inhibition of human MDA-MB-231 cells assessed as cell viability after 48 hrs by MTS assay; assay type: functional; settings: MDA-MB-231, 48 h
HeLa [2] = assay: Growth inhibition of human HeLa cells assessed as cell viability after 48 hrs by MTS assay; assay type: functional
TCC-SUP [3] = assay: Growth inhibition of human TCCSUP cells assessed as cell viability after 48 hrs by MTS assay; assay type: functional
MDA-MB-231 [4] = assay: Growth inhibition of human MDA-MB-231 cells assessed as cell viability at 0.5 uM after 48 hrs by MTS assay; assay type: functional, cell-based
HeLa [5] = assay: Growth inhibition of human HeLa cells assessed as cell viability at 0.5 uM after 48 hrs by MTS assay; assay type: functional, cell-based
TCC-SUP [6] = assay: Growth inhibition of human TCCSUP cells assessed as cell viability at 0.5 uM after 48 hrs by MTS assay; assay type: functional, cell-based

## CCOC(=O)C(CC(C)C)NC(=O)c1cc2c(ccc3oc4ccccc4c32)oc1=O (stereo not given)
MDA-MB-231 [1]
  GI50: 0.205 µM
HeLa [2]
  GI50: 0.043 µM
TCC-SUP [3]
  GI50: 0.122 µM
MDA-MB-231 [4]
  growth inhibition (GI): Active
HeLa [5]
  growth inhibition (GI): Active
TCC-SUP [6]
  growth inhibition (GI): Active

## O=C(O)c1cc2c(ccc3oc4ccccc4c32)oc1=O
MDA-MB-231 [1]
  GI50: 0.097 µM
HeLa [2]
  GI50: 0.003 µM
TCC-SUP [3]
  GI50: 0.05 µM
MDA-MB-231 [4]
  growth inhibition (GI): Active
HeLa [5]
  growth inhibition (GI): Active
TCC-SUP [6]
  growth inhibition (GI): Active

## COC(=O)C(C)NC(=O)c1cc2c(ccc3oc4ccccc4c32)oc1=O (stereo not given)
MDA-MB-231 [1]
  GI50: 0.106 µM
HeLa [2]
  GI50: 0.053 µM
TCC-SUP [3]
  GI50: 0.159 µM
MDA-MB-231 [4]
  growth inhibition (GI): Active
HeLa [5]
  growth inhibition (GI): Active
TCC-SUP [6]
  growth inhibition (GI): Active

## O=c1ccc2c(ccc3oc4ccccc4c32)o1
MDA-MB-231 [1]
  GI50: 0.467 µM
HeLa [2]
  GI50: 0.005 µM
TCC-SUP [3]
  GI50: 0.031 µM
MDA-MB-231 [4]
  growth inhibition (GI): Active
HeLa [5]
  growth inhibition (GI): Active
TCC-SUP [6]
  growth inhibition (GI): Active

## CCOC(=O)c1cc2c(ccc3oc4ccccc4c32)oc1=O
MDA-MB-231 [1]
  GI50: 0.083 µM
HeLa [2]
  GI50: 0.002 µM
TCC-SUP [3]
  GI50: 0.012 µM
MDA-MB-231 [4]
  growth inhibition (GI): Active
HeLa [5]
  growth inhibition (GI): Active
TCC-SUP [6]
  growth inhibition (GI): Active
